Experimental data: the NIST ThermoML archive (doi:10.1016/j.fluid.2016.06.011)

Settings: Liquid; for vapor or sublimation pressure: Closed cell (Static) method; for mass density: 101.33 kPa, Vibrating tube method

OCC(F)(F)C(F)(F)C(F)(F)F [2,2,3,3,4,4,4-heptafluorobutanol]
Settings	mass density [kg/m3]	vapor or sublimation pressure [kPa]
278.14 K	–	0.7213
278.15 K	1633.59	–
279.15 K	1631.74	–
280.15 K	1629.87	–
281.15 K	1627.99	–
282.15 K	1626.11	–
283.1 K	–	1.047
283.15 K	1624.23	–
284.15 K	1622.34	–
285.15 K	1620.44	–
286.15 K	1618.54	–
287.15 K	1616.63	–
288.08 K	–	1.495
288.15 K	1614.73	–
289.15 K	1612.81	–
290.15 K	1610.89	–
291.15 K	1608.97	–
292.15 K	1607.04	–
293.08 K	–	2.117
293.15 K	1605.11	–
294.15 K	1603.16	–
295.15 K	1601.22	–
296.15 K	1599.26	–
297.15 K	1597.31	–
298.1 K	–	2.965
298.15 K	1595.34	–
299.15 K	1593.37	–
300.15 K	1591.39	–
301.15 K	1589.41	–
302.15 K	1587.41	–
303.07 K	–	4.086
303.15 K	1585.41	–
304.15 K	1583.41	–
305.15 K	1581.4	–
306.15 K	1579.38	–
307.15 K	1577.36	–
308.04 K	–	5.551
308.15 K	1575.32	–
309.14 K	1573.28	–
310.15 K	1571.23	–
311.15 K	1569.18	–
312.15 K	1567.12	–
313.03 K	–	7.473
313.14 K	1565.05	–
314.15 K	1562.97	–
315.15 K	1560.89	–
316.15 K	1558.79	–
317.15 K	1556.69	–
317.98 K	–	9.905
318.15 K	1554.58	–
319.14 K	1552.46	–
320.15 K	1550.34	–
321.15 K	1548.2	–
322.14 K	1546.06	–
322.95 K	–	13.14
323.14 K	1543.91	–
324.14 K	1541.75	–
325.15 K	1539.58	–
326.14 K	1537.4	–
327.14 K	1535.21	–
327.91 K	–	17.26
328.15 K	1533.02	–
329.15 K	1530.81	–
330.14 K	1528.6	–
331.14 K	1526.38	–
332.15 K	1524.14	–
333.14 K	1521.91	–
334.14 K	1519.66	–
335.14 K	1517.4	–
336.14 K	1515.13	–
337.14 K	1512.85	–
338.14 K	1510.57	–
339.14 K	1508.28	–
340.14 K	1505.97	–
341.14 K	1503.65	–
342.14 K	1501.33	–
343.14 K	1498.99	–
344.15 K	1496.65	–
345.15 K	1494.29	–
346.15 K	1491.93	–
347.15 K	1489.55	–
348.14 K	1487.16	–
349.14 K	1484.77	–
350.14 K	1482.37	–
351.14 K	1479.94	–
352.14 K	1477.52	–
353.14 K	1475.08	–

OCC(F)(F)C(F)(F)F [2,2,3,3,3-pentafluoropropanol]
Settings	mass density [kg/m3]	vapor or sublimation pressure [kPa]
278.16 K	1542.78	–
279.15 K	1540.99	–
280.15 K	1539.17	–
281.15 K	1537.35	–
282.15 K	1535.52	–
283.15 K	1533.69	–
284.15 K	1531.86	–
285.15 K	1530.02	–
286.15 K	1528.18	–
287.15 K	1526.33	–
288.15 K	1524.47	–
289.15 K	1522.62	–
290.15 K	1520.75	–
291.15 K	1518.88	–
292.15 K	1517	–
293.15 K	1515.12	–
294.15 K	1513.23	–
295.15 K	1511.35	–
296.15 K	1509.44	–
297.15 K	1507.54	–
298.08 K	–	6.205
298.15 K	1505.63	–
299.15 K	1503.71	–
300.15 K	1501.79	–
301.15 K	1499.86	–
302.15 K	1497.92	–
303.05 K	–	8.416
303.15 K	1495.97	–
304.15 K	1494.03	–
305.14 K	1492.07	–
306.15 K	1490.1	–
307.15 K	1488.13	–
308.04 K	–	11.31
308.15 K	1486.15	–
309.14 K	1484.16	–
310.14 K	1482.16	–
311.14 K	1480.16	–
312.14 K	1478.14	–
313.01 K	–	14.97
313.14 K	1476.12	–
314.15 K	1474.09	–
315.15 K	1472.06	–
316.14 K	1470.01	–
317.14 K	1467.95	–
317.98 K	–	19.59
318.15 K	1465.89	–
319.14 K	1463.82	–
320.14 K	1461.73	–
321.15 K	1459.64	–
322.14 K	1457.55	–
322.96 K	–	25.41
323.14 K	1455.43	–
324.14 K	1453.31	–
325.14 K	1451.18	–
326.14 K	1449.05	–
327.14 K	1446.89	–
327.93 K	–	32.49
328.15 K	1444.74	–
329.15 K	1442.57	–
330.14 K	1440.39	–
331.14 K	1438.2	–
332.14 K	1436	–
333.14 K	1433.79	–
334.14 K	1431.57	–
335.14 K	1429.34	–
336.14 K	1427.1	–
337.14 K	1424.84	–
338.14 K	1422.58	–
339.14 K	1420.31	–
340.14 K	1418.03	–
341.14 K	1415.72	–
342.14 K	1413.42	–
343.15 K	1411.1	–
344.15 K	1408.78	–
345.15 K	1406.43	–
346.15 K	1404.08	–
347.15 K	1401.72	–
348.15 K	1399.34	–
349.14 K	1396.95	–
350.14 K	1394.55	–
351.14 K	1392.14	–
352.14 K	1389.72	–
353.14 K	1387.29	–
